Experimental data published in ChEMBL document CHEMBL1201862, “PubChem BioAssay data set” (2004).
Active and inactive are the calls of the source.

Key:
cells [1] = type: functional, cell-based
cells [2] = type: functional, cell-based; remark: listed apart in the source
[3] = molecular target: T1, Heat shock factor protein 1 (Mus musculus, UniProt P38532); test: HSF1 potentiators in luciferase reporter cells, confirmation, cell-based, NIH3T3, luminescence, dose retest (AID 435004); type: functional;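 also: stress induced by proteasome inhibitor MG132 added 30 min after compound; luciferase reporter driven by HSF1 response element in NIH3T3 cells; actives raise luminescence as potentiators of the MG132 stress response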
T1 sequence (P38532 whole entry): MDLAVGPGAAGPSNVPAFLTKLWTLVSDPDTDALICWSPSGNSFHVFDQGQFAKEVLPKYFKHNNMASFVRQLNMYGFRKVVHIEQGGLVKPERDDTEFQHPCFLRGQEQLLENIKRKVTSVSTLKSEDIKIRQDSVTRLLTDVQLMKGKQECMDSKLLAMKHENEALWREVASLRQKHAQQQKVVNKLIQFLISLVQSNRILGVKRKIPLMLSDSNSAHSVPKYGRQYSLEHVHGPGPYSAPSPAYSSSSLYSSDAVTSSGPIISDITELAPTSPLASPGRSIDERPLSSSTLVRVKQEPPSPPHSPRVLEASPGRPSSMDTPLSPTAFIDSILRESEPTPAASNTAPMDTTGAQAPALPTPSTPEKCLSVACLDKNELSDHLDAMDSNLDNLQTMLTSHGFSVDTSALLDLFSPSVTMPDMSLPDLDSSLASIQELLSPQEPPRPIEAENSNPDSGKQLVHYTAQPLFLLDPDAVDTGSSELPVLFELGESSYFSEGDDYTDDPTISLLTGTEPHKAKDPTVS

HEK293 = test: inhibitors of LMP1-driven NF-kB reporter, dose response, cell-based, HEK293, luciferase, cherry-pick (AID 588343); type: functional; conditions: Homo sapiens
[4] = Shn3 3'UTR reporter inhibitors, dose response, cell-based, Clone20 osteoblasts, firefly luciferase, cherry-picked (AID 624132); type: functional;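 also: firefly luciferase luminescence from reporter carrying the Shn3 3'UTR in osteoblasts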
[5] = control 3'UTR Renilla luciferase suppression, dose response, counter-screen for Shn3 inhibitor project, cell-based, Clone20-Shn3RL, cherry-picked (AID 624133); type: functional
[6] = HepG2 cell cytotoxicity, dose response, cytotoxicity control for Shn3 inhibitor project, CellTiter-Glo, cherry-picked (AID 624134); type: functional, cell-based
P388/ADR = test: cells; type: functional; conditions: Mus musculus
P388 = test: cells; type: functional; conditions: Mus musculus
SN12K1 = test: cells; type: functional; conditions: Homo sapiens
Large T antigen = Large T antigen (Simian virus 40, UniProt P03070); type: functional, Betapolyomavirus macacae;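 also: Confirmatory-stage PubChem screen for compounds that inhibit SV40 T antigen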
INS1 = test: beta cell apoptosis inhibitors, cytokine rescue, dose response, luminescence, retest (AID 449756); type: functional, cell-based; conditions: Rattus norvegicus;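 also: cell death triggered by IL-1 beta plus TNF-alpha plus IFN-gamma mixture; protective hits raise ATP signal compared with cytokine alone wells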
[7] = inhibitors of intracellular T. cruzi replication, confirmation, NIH3T3 host cells, beta-gal luminescence (AID 2044); type: functional, cell-based;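 also: intracellular parasites grown in NIH/3T3 mouse fibroblasts as host cells; luminescent beta-galactosidase reporter signal from transgenic T. cruzi replicating inside host cells; inhibitors lower the luminescence signal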
[8] = cytotoxicity toward NIH3T3 fibroblasts, dose response, counter-screen, cell-based, ATP luminescence, mouse fibroblasts (AID 2010); type: functional;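 also: cells exposed to compound for about 90 hours before reading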

Sequence of Large T antigen (P03070 whole entry): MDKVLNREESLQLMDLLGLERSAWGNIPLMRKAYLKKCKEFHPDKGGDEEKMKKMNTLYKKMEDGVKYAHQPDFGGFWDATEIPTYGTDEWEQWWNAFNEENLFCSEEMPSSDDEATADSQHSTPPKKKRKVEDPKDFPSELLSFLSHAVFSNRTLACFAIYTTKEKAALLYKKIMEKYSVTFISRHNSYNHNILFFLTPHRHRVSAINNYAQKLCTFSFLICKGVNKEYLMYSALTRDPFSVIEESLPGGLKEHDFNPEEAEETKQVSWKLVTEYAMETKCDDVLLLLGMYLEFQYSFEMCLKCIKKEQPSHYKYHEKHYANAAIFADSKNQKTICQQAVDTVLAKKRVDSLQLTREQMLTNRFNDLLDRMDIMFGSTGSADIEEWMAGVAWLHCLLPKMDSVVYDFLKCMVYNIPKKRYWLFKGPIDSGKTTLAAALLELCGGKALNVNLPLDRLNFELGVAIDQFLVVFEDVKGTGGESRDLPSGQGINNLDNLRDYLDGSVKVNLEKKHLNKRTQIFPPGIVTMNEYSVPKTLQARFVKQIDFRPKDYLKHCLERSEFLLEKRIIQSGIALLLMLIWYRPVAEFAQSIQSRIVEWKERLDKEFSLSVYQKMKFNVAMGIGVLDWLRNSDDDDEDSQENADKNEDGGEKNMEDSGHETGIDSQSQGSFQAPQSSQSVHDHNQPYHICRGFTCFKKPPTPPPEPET

**Q.** With Cc1ccc(C(CC(=O)O)C2CCOC(C)(C)C2)cc1 (stereo unspecified) as the molecule, how does the EC50 (cells [1]) read?
**A.** > 350 µM (not active)

**Q.** What about the EC50 (cells [2]) of the same molecule?
**A.** > 350 µM (not active)

**Q.** Which EC50 (cells [1]) does the source give for c1cnc(N2CCN(c3ccc4ccccc4n3)CC2)nc1 here?
**A.** 11.9 µM (active)

**Q.** And the EC50 (cells [2])?
**A.** > 350 µM (not active)

**Q.** And the EC50 [3]?
**A.** > 260 µM (inactive)

**Q.** Which EC50 (cells [1]) does the source give for O=S(=O)(c1cccc(C(F)(F)F)c1)N1CCC(c2nc(O)c3nnn(Cc4cccc(F)c4)c3n2)CC1 here?
**A.** > 350 µM (not active)

**Q.** What about the EC50 (cells [2]) of the same molecule?
**A.** > 350 µM (not active)

**Q.** With COCCn1c(SCC(=O)NCc2ccco2)nnc1-c1c[nH]c2ccccc12 as the molecule, how does the AC50 (HEK293) read?
**A.** 283 µM (active)

**Q.** With Cc1ccc(C(=O)Nc2sc(Cc3ccc4c(c3)OCO4)c(C)c2C(N)=O)cc1 as the molecule, how does the AC50 (HEK293) read?
**A.** 130 µM (active)

**Q.** Which AC50 [4] does the source give for CC(C)C1C(=O)N(Cc2cn(CCC3OCCO3)nn2)CCS(=O)(=O)N1Cc1ccc(-c2ccc(Cl)c(Cl)c2)cc1 (stereo unspecified) here?
**A.** 1.28 µM (active)

**Q.** What about the AC50 [5] of the same molecule?
**A.** 3.36 µM (active)

**Q.** What about the AC50 [6] of the same molecule?
**A.** > 70 µM (inactive)

**Q.** For CCOC(=O)CNC(=O)N(CC)C12CC3CC(CC(C3)C1)C2, which GI50 (P388/ADR) is on record?
**A.** 131 µM (inactive)

**Q.** And the GI50 (P388)?
**A.** 79.1 µM (inactive)

**Q.** What about the GI50 (SN12K1) of the same molecule?
**A.** 109 µM (inactive)

**Q.** Which results are given for O=C1c2cccc3cc4ccccc4c(c23)C(=O)N1CCNCCN1C(=O)c2cccc3cc4ccccc4c(c23)C1=O?
**A.** GI50 (P388/ADR): 0.16 µM (active); GI50 (P388): 0.27 µM (active); GI50 (SN12K1): 1.91 µM (inactive)

**Q.** For NC(=S)N/N=C/c1ccc(OC(=O)COc2ccccc2Cl)cn1, which GI50 (P388/ADR) is on record?
**A.** 4.97 µM (inactive)

**Q.** What about the GI50 (P388) of the same molecule?
**A.** 3.31 µM (inactive)

**Q.** And the GI50 (SN12K1)?
**A.** 9.29 µM (inactive)

**Q.** For CSc1sc(=S)sc1SC, which GI50 (P388/ADR) is on record?
**A.** > 100 µM (inactive)

**Q.** And the GI50 (P388)?
**A.** 60.8 µM (inactive)

**Q.** And the GI50 (SN12K1)?
**A.** > 63.1 µM (inactive)

**Q.** With CCC1OC(=O)C(C)C(OC2CC(C)(O)C(O)C(C)O2)C(C)C(O)C(C)(O)CC(C)C(=O)C(C)C(O)C1C (stereo unspecified) as the molecule, how does the GI50 (P388/ADR) read?
**A.** > 300 µM (inactive)

**Q.** What about the GI50 (P388) of the same molecule?
**A.** > 300 µM (inactive)

**Q.** What about the GI50 (SN12K1) of the same molecule?
**A.** > 300 µM (inactive)

**Q.** For COc1cc(/C=N/NC(=O)c2nnn(-c3nonc3N)c2-c2cccs2)ccc1O, which IC50 (Large T antigen) is on record?
**A.** 19.4 µM (active)

**Q.** With COc1cc(/C=N/NC(=O)C2COc3ccccc3O2)ccc1O (stereo unspecified) as the molecule, how does the IC50 (Large T antigen) read?
**A.** 8.24 µM (active)

**Q.** With O=C(O)c1cc(N/N=C/c2cccc3ccccc23)ccc1Cl as the molecule, how does the IC50 (Large T antigen) read?
**A.** > 100 µM (active)

**Q.** Which results are given for Cc1cccc(/C=N\NC(=O)c2ccc(Cl)cc2)c1O?
**A.** EC50 (cells [1]): 6.37 µM (active); AC50 (INS1): 0.597 µM (active); EC50 (cells [2]): > 350 µM (not active); EC50 [3]: 91 µM (active); EC50 [7]: 0.877 µM (active); EC50 [8]: 9.57 µM (active)
